The values that follow come from publication PMC4127532 (Journal of Medicinal Chemistry, 2014).

“Also recorded” adds a separate entry of the source.

Experiment [1] deals with A/England/195/2009 (H1N1), M2/S31 (Influenza A virus, UniProt C3W5Z0, N31S). It counts as cell-based.
Experiment [2] has as its system A/Victoria/3/75 (H3N2, M2 WT). In words: microbe, parasite or virus in culture. It is filed as cell-based, influenza A.
Experiment [3] has as its target S31N M2 transmembrane domain (residues 22–46) (Influenza A virus, UniProt P0DOF5, S31N). It is filed as binding, influenza A (A/Udorn/307/72).

For `NC1C2CC3CC(C2)CC1C3` (stereo not shown) [Compound 3], the “block of inward proton currents (in words)” value (shortened to “block”) in experiment [1] is listed as “well blocked”.
For `NC12CC3CC(CC(C3)C1)C2` [Compound 1, amantadine], in experiment [1], the “block” value is “well blocked”. The “EC50 ± SE” value in experiment [2] is “no detectable activity; also recorded: inactive”. Moreover, it took 3000 ± 500 nM to reach a half-maximal effect in experiment [2] (Influenza A virus, H3N2, MDCK) (EC50).
For `CCCC1(N)C2CC3CC(C2)CC1C3` (stereo not shown) [Compound 6, 2-n-Propyltricyclo[3.3.1.1^3,7]decan-2-amine], the “block” value in experiment [1] is reported as “well blocked”. Moreover, in experiment [3], the “decrease of tilt angle of the entire TMD helix” value came to 3 ° and the “helix tilt of S31N M2 TMD with drug” value is recorded as about 33 °.
